Laboratory results as given in patent US7083941B2, “Compositions and methods for gender sorting” (priority 2001, dated 2006).

What follows are molecules tested against T1, human estrogen receptor (Homo sapiens, UniProt P03372, G400V). Settings: not given.
T1 sequence (P03372 1-595 G400V): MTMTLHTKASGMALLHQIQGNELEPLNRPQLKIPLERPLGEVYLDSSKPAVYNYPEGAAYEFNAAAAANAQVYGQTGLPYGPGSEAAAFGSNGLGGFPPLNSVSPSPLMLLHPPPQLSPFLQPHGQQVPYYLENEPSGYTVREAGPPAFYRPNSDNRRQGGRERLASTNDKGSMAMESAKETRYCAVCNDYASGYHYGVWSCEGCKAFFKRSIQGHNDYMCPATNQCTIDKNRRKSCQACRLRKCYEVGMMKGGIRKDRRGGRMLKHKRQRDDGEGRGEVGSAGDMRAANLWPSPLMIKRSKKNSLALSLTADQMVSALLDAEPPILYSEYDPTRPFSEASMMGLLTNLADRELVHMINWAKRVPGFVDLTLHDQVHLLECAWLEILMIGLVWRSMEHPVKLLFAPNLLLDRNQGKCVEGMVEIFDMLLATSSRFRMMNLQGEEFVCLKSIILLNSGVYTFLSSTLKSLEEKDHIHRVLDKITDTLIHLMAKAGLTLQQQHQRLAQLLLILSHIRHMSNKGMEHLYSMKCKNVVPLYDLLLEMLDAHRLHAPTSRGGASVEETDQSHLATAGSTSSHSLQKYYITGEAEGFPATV

Q: With 4-Hydroxytamoxifen as the molecule, how does the “Percent Cross Reactivity” value read?
A: <0.25%

Same assay, conditions: cross-activity determined at concentration of 50% maximum potency; 17-β Estradiol = 100

Q: How did the “Percent Cross Reactivity” value turn out when `C[C@H]1CC(=O)C[C@@H]2CC[C@H]3[C@@H]4CC[C@H](O)[C@@]4(C)CC[C@@H]3[C@]21C` [Mesterolone] was run?
A: <0.05%

Q: `C[C@]12CC[C@@H]3c4ccc(O)cc4CC[C@H]3[C@@H]1C[C@@H](O)C2=O` [16-Hydroxyestrone] was tested. Which “Percent Cross Reactivity” value did it give?
A: 4.0%

Q: For `C[C@]12CCC(=O)C=C1CC[C@@H]1[C@@H]2CC[C@]2(C)C(=O)CC[C@@H]12` [Androstenedione], which “Percent Cross Reactivity” value is on record?
A: <0.05%

Q: With `CC(=O)[C@H]1CC[C@H]2[C@@H]3CCC4=CC(=O)CC[C@]4(C)[C@H]3CC[C@]12C` [Progesterone] as the molecule, how does the “Percent Cross Reactivity” value read?
A: <0.025%

Q: Which “Percent Cross Reactivity” value does the source give for `C[C@]12CC[C@H]3[C@@H](CCC4=CC(=O)CC[C@@]43C)[C@@H]1CC[C@@H]2O` [Testosterone] here?
A: <0.05%

Q: With `C[C@]12CC[C@H](O)CC1=CC[C@@H]1[C@@H]2CC[C@]2(C)C(=O)CC[C@@H]12` [Dehydroepiandrosterone] as the molecule, how does the “Percent Cross Reactivity” value read?
A: <0.05%

Q: `COc1cc2c(cc1O)CC[C@@H]1[C@@H]2CC[C@]2(C)C(=O)CC[C@@H]12` [2-Methoxyestrone] was tested. Which “Percent Cross Reactivity” value did it give?
A: <0.25%

Q: Which “Percent Cross Reactivity” value does the source give for `C#C[C@]1(O)CC[C@H]2[C@@H]3CCC4=Cc5oncc5C[C@]4(C)[C@H]3CC[C@@]21C` [Danasol] here?
A: <0.025%

Q: Which “Percent Cross Reactivity” value does the source give for `C[C@]12C[C@H](O)[C@H]3[C@@H](CCC4=CC(=O)CC[C@@]43C)[C@@H]1CC[C@@H]2C(=O)CO` [Corticosterone] here?
A: <0.025%
